Laboratory results from patent US20230090742A1, “AMINOPYRIMIDINYLAMINOBENZONITRILE DERIVATIVES AS NEK2 INHIBITORS” (Sumitomo Pharma Oncology, Inc., priority 2020, published 2023).
Like-named read-outs stand apart in the source and are kept apart here.

Legend:
SW480 cells = test: Cell cycle analysis in SW480 cells by flow cytometry; type: cell-based; conditions: 24-hour treatment
Method: (§1) Reagents. MDA-MB-231 (Breast adenocarcinoma, triple negative breast cancer) and SW480 (colorectal adenocarcinoma, stem-like subtype) cells were purchased from ATCC and cultured as per manufacturer's instruction. Thymidine (Sigma, T9250) stock solution (100 mM) was prepared in PBS. 2′-Deoxycytidine (Sigma, D897) stock solution (240 mM) was prepared in distilled H2O. Nocodazole (Selleck Chemicals, S2775) stock solution (5 mg/mL) was made in dimethyl sulfoxide (DMSO). FxCycle Far Red stain (F10348) for cell cycle analysis was purchased from Thermo Fisher Scientific.
Flow Cytometry Analysis. The SW480 cells were treated with NEK2 inhibitors at a concentration ranging from 0-1000 nM for 24 hours. After 24 hours of treatment, cells were detached and dissociated using 0.25% trypsin. After trypsinization, cells were washed with ice-cold PBS and fixed in 4% paraformaldehyde (PFA) at room temperature for 20 minutes. After fixation, cells were permeabilized by incubating in 90% methanol for 30 minutes on ice. Subsequently, cells were stained with FITC conjugated anti-EZH2 antibody (1:50, Cell Signaling technology) for 2 hours at room temperature and FxCycle Far Red stain (Thermo Fisher Scientific) for visualization of EZH2 expression and cell cycle, respectively. […] A minimum of 100,000 events were analyzed in each sample, and the results were evaluated using FlowJo software. […]

[1] = molecular target: T1, Aurora A kinase (Accession No. NP-940839) (Homo sapiens, UniProt O14965); test: HotSpot Kinase Assay, Aurora A; type: biochemical
T1 construct: purchased ThermoFisher Scientific (Invitrogen)
T1 sequence (O14965 1-403): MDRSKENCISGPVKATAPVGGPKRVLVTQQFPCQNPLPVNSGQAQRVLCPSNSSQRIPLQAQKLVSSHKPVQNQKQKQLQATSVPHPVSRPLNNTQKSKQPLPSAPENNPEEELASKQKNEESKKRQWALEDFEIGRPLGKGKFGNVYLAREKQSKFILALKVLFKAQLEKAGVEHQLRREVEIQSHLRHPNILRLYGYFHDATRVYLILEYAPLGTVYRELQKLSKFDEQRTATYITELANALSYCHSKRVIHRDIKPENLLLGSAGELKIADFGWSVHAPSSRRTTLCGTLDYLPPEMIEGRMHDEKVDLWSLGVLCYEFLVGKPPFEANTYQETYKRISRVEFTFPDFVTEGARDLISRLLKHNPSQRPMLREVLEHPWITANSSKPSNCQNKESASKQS
Method: (§2) In this example, the compounds described herein were tested for their inhibitory activity against NEK2 and/or Aurora A using the HotSpot™ Kinase Assay (Reaction Biology Corp.). The assay was performed according to the manufacturer's protocol, as detailed below. The NEK2 kinase (Accession No. NP-002488) and Aurora A kinase (Accession No. NP-940839) for use in these assays was sourced from ThermoFisher Scientific (Invitrogen).
(§3) The base Reaction Buffer used in this experiment contained the following: 20 mM Hepes (pH 7.5), 10 mM MgCl2, 1 mM EGTA, 0.02% Brij™-35, 0.02 mg/ml BSA, 0.1 mM Na3VO4, 2 mM DTT, and 1% DMSO. The required cofactors were added individually to each kinase reaction.
(§4) Testing compounds were dissolved in 100% DMSO to a specific concentration. The serial dilution was conducted by Integra Viaflo Assist in DMSO.
(§5) The substrate was prepared in freshly prepared Reaction Buffer. The required cofactors were delivered to the substrate solution described above. NEK2 kinase or Aurora A kinase was delivered to the substrate solution and gently mixed. Next, the compounds in 100% DMSO were transferred to the kinase reaction mixture by Acoustic technology (Echo550; nanoliter range) and incubated for 20 min at room temperature. ^33P-ATP (Specific activity 10 μCi/μl) was delivered into the reaction mixture to initiate the reaction. The reaction was incubated for 2 hours at room temperature. Radioactivity was then detected by the filter-binding method. Kinase activity data were expressed as the percent remaining kinase activity in test samples compared to vehicle (dimethyl sulfoxide) reactions. IC50 values and curve fits were obtained using Prism (GraphPad Software).

[2] = molecular target: T2, NEK2 kinase (Accession No. NP-002488) (Homo sapiens, UniProt P51955); test: HotSpot Kinase Assay, NEK2; type: biochemical
T2 construct: purchased ThermoFisher Scientific (Invitrogen)
T2 sequence (P51955 1-445): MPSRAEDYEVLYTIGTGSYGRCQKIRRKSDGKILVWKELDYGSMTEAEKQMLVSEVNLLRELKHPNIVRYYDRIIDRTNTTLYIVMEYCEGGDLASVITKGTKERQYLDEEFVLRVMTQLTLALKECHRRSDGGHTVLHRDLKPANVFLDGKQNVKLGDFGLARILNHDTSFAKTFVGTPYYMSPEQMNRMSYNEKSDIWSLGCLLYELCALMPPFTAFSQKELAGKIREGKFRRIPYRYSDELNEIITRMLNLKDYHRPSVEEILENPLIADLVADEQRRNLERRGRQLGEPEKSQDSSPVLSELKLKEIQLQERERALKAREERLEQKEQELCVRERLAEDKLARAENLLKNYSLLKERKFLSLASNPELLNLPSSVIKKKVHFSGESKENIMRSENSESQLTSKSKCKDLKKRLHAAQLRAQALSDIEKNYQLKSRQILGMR
Method: as §2, §3, §4, §5

NEK2 = molecular target: T3, NEK2 (Homo sapiens, UniProt P51955); test: NanoBRET Target Engagement Intracellular Kinase Assay for NEK2 in transfected HEK293 cells; type: cell-based
T3 construct: expressed in transfected cells; host or cells: HEK293
T3 sequence (P51955 1-445): T2 sequence (P51955 1-445)
Method: In this example, the compounds described herein were tested for their inhibitory activity against NEK2 using a model of in vivo activity by the NanoBRET™ Target Engagement Intracellular Kinase Assay (Reaction Biology Corp.). The assay was performed according to the manufacturer's protocol, as detailed below.
HEK293 cells were cultivated (70-80% confluence) prior to the assay. The sample was trypsinized and HEK293 cells were collected.
To prepare lipid: DNA complexes, a 10 μg/ml solution of DNA in Opti-MEM without serum was prepared that consisted of the following ratios of carrier DNA and DNA encoding NanoLuc® fusion: 9.0 μg/ml of Transfection Carrier DNA, 1.0 μg/ml of NanoLuc fusion vector DNA and 1 ml of Opti-MEM without phenol red. The solution was mixed thoroughly. 30 μl of FuGENE HD Transfection Reagent was added into each milliliter of DNA mixture to form lipid: DNA complex. The sample was mixed by inversion 10 times and then incubated at ambient temperature for 20 minutes to allow complexes to form. In a sterile, conical tube, 1 part of lipid:DNA complex was mixed with 20 parts of HEK293 cells in suspension. The resulting sample was mixed gently by inversion 5 times. The cell and lipid: DNA complex was dispensed into a sterile tissue culture dish and incubated for 22-24 hours.
Each test compound is delivered from the compound source plate to the wells of 384-well white NBS plate by Echo 550.
Step 3. Preparation of Cells with NanoBRET™ Tracer K5 Reagent:
The medium was removed from the dish with the transfected HEK293 cells via aspiration, trypsinized and cells were allowed to dissociate from the dish. Trypsin was neutralized using medium containing serum and centrifuged at 200×g for 5 minutes to pellet the cells. The cell density was adjusted to 2×10^5 cells/ml in Opti-MEM without phenol red.
The Complete 20× NanoBRET™ Tracer K5 Reagent with Tracer Dilution Buffer was prepared according to the manufacturer's instructions. One part of Complete 20× NanoBRET™ Tracer Reagent was added to 20 parts of cells in the tube. The sample was mixed gently by inversion 10 times. Next, the cell suspension was dispensed into white, 384-well NBS plates with a final tracer K5 concentration of 2 μM. The plate was incubated at 37° C., 5% CO2 for 1 hour. A separate set of samples without tracer were prepared for background correction steps.
The plate was removed from the incubator and equilibrated to room temperature for 15 minutes. The 3× Complete Substrate plus Inhibitor Solution in Assay Medium (Opti-MEMR I Reduced Serum Medium, no phenol red) was prepared just before measuring BRET. The 3× Complete Substrate plus Inhibitor Solution was added to each well of the 384-well plate and incubated for 2-3 minutes at room temperature. The donor emission wavelength (460 nm) and acceptor emission wavelength (600 nm) were measured using the Envision 2104 plate reader.
To generate raw BRET ratio values, the acceptor emission value (600 nm) was divided by the donor emission value (460 nm) for each sample. To correct for background, the BRET ratio in the absence of tracer (average of no-tracer control samples) was subtracted from the BRET ratio of each sample.
BRET Ratio=[(Acceptor sample÷Donor sample)−(Acceptor no-tracer control÷Donor no-tracer control)]

EZH2 expression = test: Flow cytometry analysis for EZH2 expression in SW480 cells; type: cell-based; conditions: Homo sapiens, 24 hours treatment, 0-1000 nM, haploid and diploid cells, read-out: dose dependent decrease in EZH2 expression, IC50
Method: as §1
Antibodies. Polyclonal antibodies to phosphorylated-Ser55 Hec1 (PA5-85846; 1:1000) were purchased from ThermoFisher Scientific, and Phospho-Thr320 PP1α (2581S; 1:1000) and Total PP1α (2582S; 1:1000) were purchased from Cell Signaling Technologies. Monoclonal antibodies to Phospho-Ser10 Histone H3 (53348S; 1:1000), Total Histone H3 (14269; 1:5000), and EZH2-FITC (30233, 1:50) antibodies were purchased from Cell Signaling Technologies; Total Hec1 (ab109496; 1:10000) was purchased from Abcam; and Total NEK2 (sc-55601; 1:200) and GAPDH (sc-365062; 1:1000-2000) antibodies were purchased from Santa Cruz Technologies.
Flow Cytometry Analysis. […] A minimum of 100,000 events were analyzed in each sample, and the results were evaluated using FlowJo software. […]

[3] = comparator compounds, read-out: Aurora A Activity
[4] = comparator compounds, read-out: NEK2 Activity HotSpot Assay
[5] = HotSpot Kinase Assay, read-out: Aurora A IC50
[6] = HotSpot Kinase Assay, read-out: NEK2 IC50
[7] = NEK2 target engagement, read-out: NanoBRET IC50

Row | IC50 [1, 3] [nM] | IC50 [1, 5] [nM] | IC50 [2, 6] [nM] | IC50 (NEK2; [7]) [nM] | SMILES | also measured
1 | 796 | – | – | – | CN1CCN(Cc2ccc(Nc3ncc(Cl)c(Nc4ccc(C#N)c(OCc5ccccc5F)c4)n3)cc2)CC1 [CF-01, 4-((5-chloro-2-((4-((4-methylpiperazin-1-yl)methyl)phenyl)-amino)-pyrimidin-4-yl)amino)-2-((2-fluorobenzyl)-oxy)benzonitrile, reference compound] | IC50 [2, 4]: > 1000 nM; IC50 (NEK2; comparator compounds, read-out: NEK2 Activity NanoBRET assay): 264 nM
2 | 313 | – | – | – | CN1CCN(c2ccc(Nc3ncc(Cl)c(Nc4ccc(C#N)c(OCc5ccccc5F)c4)n3)cc2)CC1 [CF-02, 4-((5-chloro-2-((4-(4-methylpiperazin-1-yl)phenyl)-amino)-pyrimidin-4-yl)amino)-2-((2-fluorobenzyl)-oxy)benzonitrile, reference compound] | IC50 [2, 4]: 264 nM
3 | 0.1 | – | – | – | CN1CCN(c2ccc(Nc3ncc(Cl)c(Nc4ccc(C(N)=O)c(OCc5ccccc5F)c4)n3)cc2)CC1 [CF-03, 4-((5-chloro-2-((4-(4-methylpiperazin-1-yl)phenyl)amino)-pyrimidin-4-yl)-amino)-2-((2-fluorobenzyl)oxy)benzamide, reference compound] | –

The next lines start with the molecule.

Row | SMILES | IC50 [1, 3] [nM] | IC50 [1, 5] [nM] | IC50 [2, 6] [nM] | IC50 (NEK2; [7]) [nM] | also measured
4 | CCN(CCCOc1ccc2c(Nc3cc(CC(=O)Nc4cccc(F)c4)n[nH]3)ncnc2c1)CCOP(=O)(O)O [AZD-1152] | – | – | – | – | cell cycle distribution (SW480 cells): significantly arrested cells in G2-M phase
5 | N#Cc1c(Nc2nc(Nc3ccc(N4CCOCC4)cc3)ncc2Cl)cccc1OCc1ccccc1F [Compound 2, 2-((5-chloro-2-((4-morpholinophenyl)amino)pyrimidin-4-yl)amino)-6-((2-fluorobenzyl)oxy)benzonitrile] | – | > 1000 | ≤ 5 | > 150 | –
6 | COc1cnc(Nc2ccc(N3CCNCC3)cc2)nc1Nc1cccc(OCc2ccccc2F)c1C#N [Compound 10, 2-((2-fluorobenzyl)oxy)-6-((5-methoxy-2-((4-(piperazin-1-yl)phenyl)amino)pyrimidin-4-yl)amino)benzonitrile] | – | > 1000 | ≤ 5 | 50 to 150 | –
7 | Cc1cnc(Nc2ccc(N3CCNCC3)cc2)nc1Nc1cccc(OCc2ccccc2F)c1C#N [Compound 12, 2-((2-fluorobenzyl)oxy)-6-((5-methyl-2-((4-(piperazin-1-yl)phenyl)amino)pyrimidin-4-yl)amino)benzonitrile] | – | – | ≤ 5 | ≤ 50 | IC50 (EZH2 expression): 214 nM
8 | CN(C)CCn1cc(Nc2ncc(Cl)c(Nc3cccc(OCc4ccccc4F)c3C#N)n2)cn1 [Compound 32, 2-((5-chloro-2-((1-(2-(dimethylamino)ethyl)-1H-pyrazol-4-yl)amino)pyrimidin-4-yl)amino)-6-((2-fluorobenzyl)oxy)benzonitrile] | – | > 1000 | > 15 | – | –
9 | O=C(O)[C@]1(Cc2cccc(Nc3nccs3)n2)CC[C@@H](Oc2cccc(Cl)c2F)CC1 [MK-5108] | – | – | – | – | cell cycle distribution (SW480 cells): significantly arrested cells in G2-M phase
